The values that follow come from patent publication US11845736B2, “Prodrugs of MDMA, MDA, and derivatives thereof” (EmpathBio, Inc., priority 2021, dated 2023).

Converted amounts (≈) assume the structure as drawn.

The nature of data set [1]: Compound solubility in FaSSIF.
Data set [2] is described as follows: Compound mouse plasma stability.
Data set [3] in a line: Compound chemical stability PBS (pH 6.5).
Data set [4] in a line: Compound chemical stability SGF with pepsin.
A short description of data set [5]: Compound chemical stability SGF without pepsin.

In general, solubility refers to the concentration that dissolves in the medium under given conditions. High values mean much dissolved substance, low ones little dissolved substance. Regarding `CC(OC(=O)N(C)C(C)Cc1ccc2c(c1)OCO2)OC(=O)C(C)(C)C` (stereo not drawn) [Compound 3, 1-(((1-(benzo[d][1,3]dioxol-5-yl)propan-2-yl)(methyl)carbamoyl)oxy)ethyl pivalate], the solubility in data set [1] amounted to 101 µM (≈ 37 µg/mL). For the same molecule, the “% Remaining” value stood at 100% in data set [2] (0 minutes); 0.0% in data set [2] (15 minutes); 0.0% in data set [2] (30 minutes); 0.0% in data set [2] (60 minutes); 0.0% in data set [2] (120 minutes); 100.00% in data set [3] (PBS pH 6.5, 0 minutes). Also, the “% Remaining” value in data set [3] (PBS pH 6.5, 30 minutes) was determined as 103.45%; in data set [3] (PBS pH 6.5, 60 minutes) it was 107.91%; in data set [3] (PBS pH 6.5, 120 minutes), 105.56%; in data set [3] (PBS pH 6.5, 240 minutes), 96.60%; in data set [4] (0 minutes) it was 100.00%; in data set [4] (30 minutes), 106.44%. Moreover, the “% Remaining” value in data set [4] (60 minutes) is on record as 108.51%; in data set [4] (120 minutes), 103.98%; in data set [4] (240 minutes), 106.17%; in data set [5] (0 minutes), 100.00%; in data set [5] (30 minutes), 97.82%; in data set [5] (60 minutes), 97.35%. In addition, the “% Remaining” value in data set [5] (120 minutes) is reported as 93.65%; in data set [5] (240 minutes), 94.12%.

In turn, `CC(Cc1ccc2c(c1)OCO2)NC(=O)CN` (stereo not drawn) [Compound 5, 2-amino-N-(1-(benzo[d][1,3]dioxol-5-yl)propan-2-yl)acetamide] yielded a solubility in data set [1] of 304 µM (≈ 71.8 µg/mL). Besides, the “% Remaining” value in data set [2] (0 minutes) is on record as 100.00%; in data set [2] (15 minutes), 103.33%; in data set [2] (30 minutes) it was 87.64%; in data set [2] (60 minutes) it was 90.78%; in data set [2] (120 minutes), 83.06%; in data set [3] (PBS pH 6.5, 0 minutes), 100.00%. Further, the “% Remaining” value in data set [3] (PBS pH 6.5, 30 minutes) is given as 95.53%; in data set [3] (PBS pH 6.5, 60 minutes), 97.09%; in data set [3] (PBS pH 6.5, 120 minutes), 98.67%; in data set [3] (PBS pH 6.5, 240 minutes) it was 105.87%; in data set [4] (0 minutes), 100.00%; in data set [4] (30 minutes), 99.68%. For the same molecule, the “% Remaining” value in data set [4] (60 minutes) was found to be 105.84%; in data set [4] (120 minutes) it was 94.42%; in data set [4] (240 minutes) it was 91.97%; in data set [5] (0 minutes), 100.00%; in data set [5] (30 minutes) it was 101.17%; in data set [5] (60 minutes) it was 91.48%. For the same molecule, the results for the “% Remaining” value in data set [5] (120 minutes) and in data set [5] (240 minutes) were 95.49% and 100.41%, respectively.

In turn, `Cc1oc(=O)oc1CN[C@H](C)Cc1ccc2c(c1)OCO2` [Compound 8, (R)-4-(((1-(benzo[d][1,3]dioxol-5-yl)propan-2-yl)amino)methyl)-5-methyl-1,3-dioxol-2-one] showed a solubility in data set [1] of 283 µM (≈ 82.4 µg/mL). Moreover, the “% Remaining” value is listed as 100% in data set [2] (0 minutes); 72% in data set [2] (15 minutes); 54% in data set [2] (30 minutes); 25% in data set [2] (60 minutes); 6% in data set [2] (120 minutes); 100% in data set [3] (PBS pH 6.5, 0 minutes). In addition, the “% Remaining” value in data set [3] (PBS pH 6.5, 30 minutes) is 96%; in data set [3] (PBS pH 6.5, 60 minutes) it was 93%; in data set [3] (PBS pH 6.5, 120 minutes), 75%; in data set [3] (PBS pH 6.5, 240 minutes), 72%; in data set [4] (0 minutes) it was 100%; in data set [4] (30 minutes), 103%. In addition, the “% Remaining” value in data set [4] (60 minutes) is given as 98%; in data set [4] (120 minutes), 96%; in data set [4] (240 minutes), 92%; in data set [5] (0 minutes), 100%; in data set [5] (30 minutes) it was 97%; in data set [5] (60 minutes), 94%. The results for the “% Remaining” value in data set [5] (120 minutes) and in data set [5] (240 minutes) were 90% and 86%, respectively.
